Reference: patent publication US20250114355A1, “TREATING LIVER DISEASE” (Mayo Foundation for Medical Education and Research, priority 2021, published 2025)
Entries after “also recorded” stand apart in the source; their conditions may differ.

Columns and labels:
[1] = tested on: alcohol/LPS-induced liver inflammation; experiment: Multiple alcohol binge with LPS mouse model; type: in vivo, mice; conditions: UMN627 22 mg/kg IP
Experimental: (§1) mRNA levels were quantified by real-time reverse transcription PCR. RNA extraction was performed with RNeasy kit (Qiagen 74104) from cells and mouse tissue according to the manufacturer's instructions. RNA Quantification was performed with spectrophotometry (NanoDrop, Thermo Scientific). 500 ng of mRNA was used for cDNA synthesis with dNTP and oligo primer using SuperScript™ III (Invitrogen 18080-093) for reverse transcription per the manufacturer's protocol. Real-Time PCR was performed from cDNA using IQ SYBR Green Mix (Biorad 1725121) on the 7500 Real-Time PCR system (Applied Biosystems), according to the manufacturer's instructions. Amplification of GAPDH and B-actin was performed for respective samples as internal controls. Each experiment was done in duplicates.
Right lobes of all mouse livers were fixed in 10% formalin and embedded in paraffin and cut into 5 μm sections. Slides were deparaffinized and underwent antigen retrieval (IHC-Tek IW-1000). Slides were treated with hydrogen peroxide for 10 minutes before blocking in 5% bovine serum albumin in phosphate-buffered saline (PBS) for 1 hour at room temperature. Samples were then incubated overnight at 4° C. with rabbit anti-MPO antibody (Abcam ab9535) at 1:25. Slides were then blocked with Avidin and Biotin (Vector SP-2001) for 15 minutes each before treatment with biotinylated secondary antibody horse anti-Rabbit (Vector BA-1100) at 1:200 for 1 hour at room temperature. Slides were then treated with
ABC reagent (Vector PK-7100) for 30 minutes before treatment with DAB reagent (Vector SK-4100) for 5 minutes. Counterstain was performed with hematoxylin stain and dehydrated in ethanol and xylene. Images were acquired using a Zeiss LSM 780 confocal microscope at 10× magnification, 5 images per slide (Carl Zeiss MicroImaging, Jena, Germany).
Liver sections from the left lobe of all mouse livers were embedded in OCT (Sakura 4583) and flash frozen. Frozen tissue was sectioned into 10 μm slices, fixed in 10% formalin and stained with BODIPY 493/503 (Invitrogen D3922) or Oil-red (Sigma 00625) and counterstained with 4′,6-diamidino-2-phenylindole (DAPI) (Sigma D9542) or hematoxylin, respectively. Representative images were obtained with microscopy in one session under same settings (Carl Zeiss MicroImaging, Jena, Germany), 3 images per slide. The proportion of tissue stained with BODIPY, or Oil-red content was quantified with ImageJ macro commands for standardization. For BODIPY staining, FITC channel intensity was measured across the whole image, and average intensities of images were normalized to the average of all control samples. For Oil Red staining, red staining was quantified above a pre-selected threshold, and average intensities of images were normalized to the average of all control samples. […]

[2] = tested on: CXCL chemokine expression in LSECs; experiment: CXCL chemokine expression by qPCR in LSECs with or without TNFα stimulation; type: cell-based, human; conditions: LSECs pretreated with inhibitor
Experimental: LSECs were thawed and cultured according to standard cell culture conditions and according to manufacture instruction (ScienCell). Briefly, LSECs are plated at low confluency and cultured in Endothelial cell medium (Cell 211-500). Fresh medium changed every other day and cells are split when close to confluency. For TNFα stimulation experiments, low passage cells were plated at 70% confluency and cultured overnight. Serum starvation was performed by changing cells to low-serum medium (0.5% FBS in basal endothelial medium (Lonza CC-3121)) for 2 hours. Human TNFα at concentration 10 ng/mL was added to low-serum medium and incubated with cells for 90 minutes before cells were collected and assayed for downstream analysis. […] Inhibitors were added at concentrations indicated to low-serum medium, and cells were incubated in inhibitor containing medium for 2 hours. After inhibitor treatment, medium change was performed with TNFα (Peprotech 300-01A) at 10 ng/ml or control low-serum medium for 90 minutes incubation. LSECs were then collected for analysis.
mRNA levels were quantified by real-time reverse transcription PCR. RNA extraction was performed with RNeasy kit (Qiagen 74104) from cells and mouse tissue according to the manufacturer's instructions. RNA Quantification was performed with spectrophotometry (NanoDrop, Thermo Scientific). […]

[3] = tested on: CXCL1 and CCL2 mRNA expression; experiment: Murine LPS model of mild liver inflammation, qPCR of CXCL1 and CCL2 mRNA; type: in vivo; conditions: mice, drug given one hour before LPS; for CCL2 mRNA expression versus LPS control: several doses
Experimental: as §1, with “BRD4 inhibitors” for “mRNA levels”, “introduced to murine models of mild liver inflammation induced” for “quantified”, “LPS. The BRD4 inhibitors acted as prophylactic agents to prevent the increased expression of CXCL1 and CCL2. […]” for “real-time reverse transcription PCR.”

[4] = biological target: BRD4 BD1 (Homo sapiens, UniProt O60885); experiment: BRD4 BD1 affinity (IC50); type: binding; conditions: ratio of BD2 and BD1 IC50
[5] = tested on: HHSEC; experiment: Colorimetric (XTT) cell viability assay in HHSEC; type: cell-based, human; conditions: for toxicity to HHSEC (ranking): XTT viability, FIG. 33B
Experimental: Cell viability assay was performed with a XTT Viability Kit (Cell Signaling Technology, 9095) according to the manufacturer's instructions. HHSEC were seeded in three black-walled 96-well plates (Corning, 3603) with cell density≥12,000 cells per well.
The cells were incubated for 24 hours at 37° C., 5% CO2 in endothelial growth media (Cell Application Inc, 211-500). After 24 hours, old media was removed and 100 μL of fresh media was added to each well. Drugs were dissolved in DMSO; a 1.1 mM stock solution was made by diluting drug in DPBS (11% DMSO, v/v). The 1.1 mM stock was serially diluted with 3-fold dilutions. DMSO volumes were balanced to 11% DMSO (v/v). A multichannel pipette was used to add 10 μL of drug or control stocks simultaneously (i.e., one column per drug per plate). The final maximum concentration of drug was 100 μM. Plates were incubated for 21 hours at 37° C., 5% CO2. After incubation, 50 μL of XTT solution were added to each well and incubated for three hours to maximize differences in signal. Absorbance was measured at 462 and 620 nm with a spectrophotometer (Molecular Devices, Spectramax Plus 384). Background absorbance at 620 nm was subtracted from maximum peak at 462 nm.

[6] = among treatment groups, 22 mg/kg

Question: For `Cc1cc(C)cc(Nc2nccc(-c3c(-c4ccc(C(F)(F)F)cc4)ncn3C3CCN(CCN)CC3)n2)c1` [UMN627], which “liver neutrophil infiltration (MPO IHC)” value ([1]; alcohol binges/LPS mice) is on record?
Answer: Attenuated

Question: What about the “liver CXCL chemokine (and Ly6g) expression by qPCR” value ([1]; alcohol binges/LPS mice, 22 mg/kg) of the same molecule?
Answer: attenuated

Question: And the “serum ALT levels” value [1, 6]?
Answer: no significant changes; also recorded: did not show statistical difference

Question: What about the “steatosis (BODIPY 493/503 staining)” value [1, 6] of the same molecule?
Answer: no significant changes; also recorded: not significantly correlated

Question: And the “CXCL chemokine expression in LSECs” value [2]?
Answer: showed efficacy in CXCL suppression

Question: And the “IC50 for CCL2 mRNA expression” value [3]?
Answer: 8.8 mg/kg

Question: And the “IC50 for CXCL1 mRNA expression” value [3]?
Answer: 10.9 mg/kg

Question: What about the “CCL2 mRNA expression versus LPS control” value [3] of the same molecule?
Answer: No significant differences were found

Question: And the “affinity for BRD4 BD1 over BRD4 BD2” value [4]?
Answer: over 20 fold

Question: For `CCc1cc(C)cc(Oc2nccc(-c3c(-c4ccc(C(F)(F)F)cc4)ncn3C3CCN(CCN(C)C)CC3)n2)c1` [9-73], which “toxicity to HHSEC (ranking)” value [5] is on record?
Answer: least toxic

Question: Which “toxicity to HHSEC (ranking)” value [5] does the source give for `CCc1cc(C)cc(Oc2nccc(-c3c(-c4ccc(C(F)(F)F)cc4)ncn3[C@H]3CCN(CCN(C)C)C3)n2)c1` [9-209] here?
Answer: least toxic

Question: Which “toxicity to HHSEC (ranking)” value [5] does the source give for `Cc1nnn(C2CCN(CCN(C)C)CC2)c1-c1cccc(Oc2cc(Br)ccc2Br)n1` [AC6026] here?
Answer: least toxic

Question: How did the “toxicity to HHSEC (ranking)” value [5] turn out when `Cc1cc(C)cc(Oc2cccc(-c3c(C)nnn3C3CCNCC3)n2)c1` [AC4118] was run?
Answer: least toxic

Question: What about the “IC50 for chemokine expression (chemokine not specified)” value [3] of the same molecule?
Answer: < 5 mg/kg

Question: What about the “CCL2 mRNA expression versus LPS control” value [3] of the same molecule?
Answer: significantly reduced CCL2 expression at higher concentrations compared to UMN627

Question: With `Cc1cc(C)cc(Nc2nccc(-c3c(-c4ccc(C(F)(F)F)cc4)ncn3C3CCN(CCCN(C)CCNC(=O)CN4CCC(n5nnc(C)c5-c5cccc(Oc6cc(C)cc(C)c6)n5)CC4)CC3)n2)c1` [9-169] as the molecule, how does the EC50 ([5]; Homo sapiens, read-out: EC50, concentration that causes 50% toxicity to HHSEC, XTT, 21 + 3 hours incubation) read?
Answer: < 4 µM

Question: `Cc1cc(C)cc(Oc2cccc(-c3c(C)nnn3C3CCN(CCN(C)C)CC3)n2)c1` [AC6027] was tested. Which “toxicity to HHSEC (ranking)” value [5] did it give?
Answer: least toxic
